Data as given in US5773423A (priority 1994, dated 1998).
Residue numbers refer to the chain shown, from its start. Read-outs that look alike come from different tables or passages of the source.

Key:
[1] = test system: locomotor activity in mice; experiment: Locomotor activity in mice (open field, Digiscan activity monitor); assay type: in vivo, mouse (NIH Swiss)
[2] = molecular target: T1, A1 receptors from rat brain membranes (Rattus norvegicus, UniProt P25099); experiment: biochemical; assay type: binding; conditions: for Ki: rat brain membranes
T1 construct: Rat cerebral cortical and striatal membranes were prepared; from tissue; host or cells: rat brain (cerebral cortical) membranes
T1 sequence (P25099 1-326): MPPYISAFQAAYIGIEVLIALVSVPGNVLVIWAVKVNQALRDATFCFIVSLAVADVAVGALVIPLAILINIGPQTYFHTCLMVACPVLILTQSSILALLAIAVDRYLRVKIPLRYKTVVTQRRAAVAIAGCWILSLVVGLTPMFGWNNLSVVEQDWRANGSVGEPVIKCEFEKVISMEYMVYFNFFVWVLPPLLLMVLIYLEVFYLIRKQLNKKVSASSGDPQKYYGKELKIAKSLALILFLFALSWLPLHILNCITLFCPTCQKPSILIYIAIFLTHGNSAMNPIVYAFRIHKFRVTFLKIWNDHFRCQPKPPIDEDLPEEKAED

[3] = molecular target: T2, A2 receptors from rat striatal membranes (Rattus norvegicus, UniProt P30543); experiment: Radioligand binding at A2 (A2a) receptors, displacement of [3H]CGS 21680 (or [3H]NECA with 50 nM CPA) from rat striatal membranes
T2 construct: Rat cerebral cortical and striatal membranes were prepared; from tissue; host or cells: rat striatal membranes

[4] = test system: cardiovascular parameters in rats; assay type: in vivo, rat
Method: Rats (each weighing 300-340 g) were lightly anesthetized using 1.5-2% halothane. They were monitored for heart rate with a tail sensor and blood pressure using the tail cuff method. Peripheral blood flow (scalp) was monitored using a Perimed laser Doppler blood flow apparatus, with a narrow diameter probe placed in contact with the shaved skin above the center of the cranium. A small amount of clear gel was applied to maintain uniform transmission of light. Body temperature was measured using a rectal probe. Respiratory rate was also recorded. Measurements were made at regular intervals: every 2 min for the first ten min period, and every five min thereafter, until 30 min, at which time a 30 min interval was used, until 90 min. […] Drugs were dissolved in a vehicle consisting of an 80:20 mixture of Alkamuls EL-620 and saline, pH 7.4. […] When administered alone, the agonist was given at the beginning of the monitoring period. When coadministered with an antagonist, the antagonist was given at the beginning of the monitoring period, and the agonist was given after 10 min.

[5] = molecular target: T3, adenosine uptake sites in rat brain membranes (Rattus norvegicus, UniProt O54698); experiment: Competition for [3H]NBTI binding at adenosine uptake sites in rat striatal membranes; conditions: read-out: Ki (NBTI); 0.3 nM [3H]NBTI, 30 min at 23° C., pH 7.4
T3 sequence (O54698 1-457): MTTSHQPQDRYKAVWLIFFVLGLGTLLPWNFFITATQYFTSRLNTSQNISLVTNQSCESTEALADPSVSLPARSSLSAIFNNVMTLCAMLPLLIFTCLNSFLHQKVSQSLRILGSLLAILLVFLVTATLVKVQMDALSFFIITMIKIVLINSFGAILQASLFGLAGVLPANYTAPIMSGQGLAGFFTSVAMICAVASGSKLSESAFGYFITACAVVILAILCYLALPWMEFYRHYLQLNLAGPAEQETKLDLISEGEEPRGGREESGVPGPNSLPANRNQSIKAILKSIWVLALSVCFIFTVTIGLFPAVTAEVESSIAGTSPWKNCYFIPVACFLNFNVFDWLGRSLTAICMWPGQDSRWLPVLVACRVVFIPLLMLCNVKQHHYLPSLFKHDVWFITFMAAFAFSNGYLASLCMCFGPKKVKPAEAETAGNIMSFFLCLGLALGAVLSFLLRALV

[6] = molecular target: T1, A1 receptors from rat brain membranes
[7] = molecular target: T2, A2 receptors from rat striatal membranes
[8] = molecular target: T4, A1 and A3 adenosine receptors in mouse brain membranes (Mus musculus, UniProt Q60612)
T4 sequence (Q60612 1-326): T1 sequence (P25099 1-326) with V151E, D155A, R157I, D316E, L319I, E325D

[9] = test system: NMDA-evoked seizures in mice; assay type: in vivo
[10] = test system: pentamethylenetetrazole-induced convulsions in mice; assay type: in vivo; conditions: PMT 75 mg/kg alone
[11] = Table 2, [3H]PIA, read-out: Ki (A1)
[12] = Table 2, [3H]CGS 21680, rat striatal membranes, read-out: Ki (A2)
[13] = 4 mg/kg alone, 10-30 min post-injection
[14] = 0.1 mg/kg i.p., from initial value
[15] = rat striatal membranes, displacement of [3H]CGS 21680 (or [3H]NECA + 50 nM CPA), read-out: A2 affinity Ki
[16] = values without SEM, taken from the literature; read-out: A1 affinity Ki; cited from earlier work
[17] = values without SEM, taken from the literature; read-out: A2 affinity Ki; cited from earlier work
[18] = read-out: A1 affinity Ki; values without SEM, taken from the literature; cited from earlier work

T2 sequence (P30543 whole entry): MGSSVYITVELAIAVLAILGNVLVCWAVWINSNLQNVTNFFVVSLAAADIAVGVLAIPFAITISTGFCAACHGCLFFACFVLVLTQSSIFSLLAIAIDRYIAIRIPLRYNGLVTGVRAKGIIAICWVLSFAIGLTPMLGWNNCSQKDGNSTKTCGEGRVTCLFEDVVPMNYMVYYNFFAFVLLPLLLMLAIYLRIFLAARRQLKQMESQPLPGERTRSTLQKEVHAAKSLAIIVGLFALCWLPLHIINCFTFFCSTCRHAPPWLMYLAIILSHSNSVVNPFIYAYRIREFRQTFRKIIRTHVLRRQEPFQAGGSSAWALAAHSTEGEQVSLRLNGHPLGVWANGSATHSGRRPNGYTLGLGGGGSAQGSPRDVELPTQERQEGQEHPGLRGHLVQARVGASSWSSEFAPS

## CCNC(=O)[C@H]1O[C@@H](n2cnc3c(N)nc(NCCc4ccc(CCC(=O)NCCN)cc4)nc32)[C@H](O)[C@@H]1O [APEC, reference compound]
[1]; APEC 16 μg/kg, 3-IB-MECA 100 μg/kg i.p.
  reduction in locomotor activity at chosen dose: ca. 50%
[2]; [11]
  Ki: 0.4 µM
[3]; [12]
  Ki: 0.0057 µM

## CCCn1c(=O)c2[nH]c(-c3ccc(C=CC(=O)O)cc3)nc2n(CCC)c1=O [BW1433, 1,3-dipropyl-8-(4-carboxyvinylphenyl)xanthine, reference compound]
[4]; 4 mg/kg alone
  blood flow and respiratory rates (in words): Blood flow and respiratory rates were increased
[4]; [13]
  rise in blood pressure: > 40 % of initial values
  rise in heart rate: > 40 % of initial values
[4]; rat, in vivo, 4 mg/kg
  body temperature (in words): no major changes

## OC[C@H]1O[C@@H](n2cnc3c(NC4CCCC4)ncnc32)[C@H](O)[C@@H]1O [Compound 4, N^6 -cyclopentyladenosine, reference compound]
[1]; Mus musculus, ip, read-out: ED50 for locomotor depression
  ED50: 0.1 mg/kg
[4]; 0.1 mg/kg i.p., entire monitoring period
  duration of bradycardiac effect: 90 min
[4]; [14]
  drop in blood pressure: 50%
  drop in heart rate: 20%
[4]; 0.1 mg/kg i.p., post-injection
  time at which hypotensive effect begins to wane: approximately 20 min

## OC[C@H]1O[C@@H](n2cnc3c(NCc4ccccc4)ncnc32)[C@H](O)[C@@H]1O [Compound 7, N^6 -benzyladenosine, reference compound]
[5]
  Ki: 0.203 ± 0.093 µM

## CN(C)c1ncnc2c1ncn2[C@@H]1O[C@H](CO)[C@@H](O)[C@H]1O [Compound 9, N^6 -dimethyladenosine, reference compound]
[3]; [15]
  Ki: 28.9 µM
[6]; [16]
  Ki: 10 µM

## COc1cc(OC)cc(C(CNc2ncnc3c2ncn3[C@@H]2O[C@H](CO)[C@@H](O)[C@H]2O)c2ccccc2C)c1 (stereo partly shown) [Compound 10, N^6-[2-(3,5-dimethoxyphenyl)-2-(2-methylphenyl)ethyl]adenosine]
[7]; read-out: A2 affinity Ki; cited from earlier work
  Ki: 0.0044 µM

## O=S(=O)(O)CCNc1ncnc2c1ncn2[C@@H]1O[C@H](CO)[C@@H](O)[C@H]1O [Compound 11, N^6-(2-sulfo)ethyladenosine]
[6]; at 100 μM, value without SEM, from the literature; cited from earlier work
  A1 percent displacement: 41%

## OC[C@H]1O[C@@H](n2cnc3c(NC4CCCC4)cc(Cl)nc32)[C@H](O)[C@@H]1O [Compound 15, 1-deaza-2-chloro-N^6-cyclopentyladenosine]
[7]; [17]
  Ki: 13.2 µM

## NC(=O)[C@H]1O[C@@H](n2cnc3c(N)ncnc32)[C@H](O)[C@@H]1O [Compound 20, 5'-carboxamidoadenosine]
[7]; [17]
  Ki: 0.12 µM
[6]; [16]
  Ki: 0.0726 µM

## CCNC(=O)[C@H]1O[C@@H](n2cnc3c(NC4CCCCC4)ncnc32)[C@H](O)[C@@H]1O [Compound 27, N^6 -cyclohexylNECA]
[7]; [17]
  Ki: 0.17 µM
[6]; read-out: A1 affinity Ki; cited from earlier work
  Ki: 0.00043 µM

## CCNC(=O)[C@H]1O[C@@H](n2cnc3c(NCc4ccccc4)ncnc32)[C@H](O)[C@@H]1O [Compound 28, N^6-benzyladenosine-5'-N-ethyluronamide]
[7]; [17]
  Ki: 0.095 µM
[2]; displacement of [3H]PIA (or [3H]CHA), read-out: A1 affinity Ki
  Ki: 0.0873 ± 0.0139 µM
[3]; [15]
  Ki: 0.0953 ± 0.0246 µM

## CCNC(=O)[C@H]1O[C@@H](n2cnc3c(N(C)C)ncnc32)[C@H](O)[C@@H]1O [Compound 29, N^6 -dimethylNECA, reference compound]
[3]; [15]
  Ki: 13.5 µM
[6]; [16]
  Ki: 9.6 µM

## Nc1ncnc2c1ccn2[C@@H]1O[C@H](CO)[C@@H](O)[C@H]1O [Compound 33, 7-deazaadenosine, reference compound]
[3]; striatal membranes, 100 µM
  A2 percent displacement: 48.3 ± 0.4%
[6]; [18]
  Ki: > 0.1 µM

## Nc1[nH]c2ccccc2c2ncnc1-2 [Compound 94, imidazo[4,5-c]quinolin-4-amine]
[7]; [17]
  Ki: 1.4 µM

## N=C(N)NC(=O)c1nc(Cl)c(N)nc1N [Compound 97, amiloride]
[7]; read-out: A2 affinity Ki; values without SEM, taken from the literature; cited from earlier work
  Ki: 17 µM
[6]; [18]
  Ki: 11 µM

## O=c1[nH]c(=O)c2[nH]cnc2[nH]1 [Compound 98, xanthine, reference compound]
[3]; read-out: A2 percent displacement
  inhibition at 100 µM: 16.2 ± 2.6%
[6]; [16]
  Ki: 298 µM

## Cn1c(=O)[nH]c2nc[nH]c2c1=O [Compound 99, 1-methylX]
[7]; [17]
  Ki: 36.2 µM
[6]; [16]
  Ki: 11.4 µM

## Cn1c(=O)[nH]c2ncn(C)c2c1=O [Compound 104, 1,7-dimethylX, reference compound]
[3]; [15]
  Ki: 19.4 µM
[6]; [16]
  Ki: 30 µM

## Cn1cnc2c1c(=O)[nH]c(=O)n2C [Compound 106, 3,7-dimethylX]
[7]; [17]
  Ki: 187 µM
[6]; [16]
  Ki: 83.4 µM

## CC(C)Cn1c(=O)n(C)c(=O)c2[nH]cnc21 [Compound 108, 3-isobutyl-1-methylxanthine]
[7]; [17]
  Ki: 16 µM

## CCCn1c(=O)c2[nH]c(C3CCCC3)nc2n(CCC)c1=O [Compound 130, 8-cyclopentyl-1,3-dipropylxanthine]
[8]
  displacement of specific [125I]AB-MECA binding (in words): completely displaced most but not all of the high affinity [^125 I]AB-MECA binding
[8]; sigmoidal competition curves
  Ki for displacement of [125I]AB-MECA binding: 0.002 to 0.008 µM

## CCCn1c(=O)c2[nH]c(-c3ccc(S(=O)(=O)O)cc3)nc2n(CCC)c1=O [Compound 135, 8-sulfophenyl-1,3-dipropylX]
[7]; [17]
  Ki: 0.79 µM
[6]; [16]
  Ki: 0.14 µM

## Nc1nc(NCc2cccc(I)c2)c2ncn([C@@H]3O[C@H](CO)[C@@H](O)[C@H]3O)c2n1 [Example 43, 2-amino-N^6-(3-iodobenzyl)-9-[β-D-ribofuranosyl]-adenine]
[2]
  factor less potent than N6-(3-iodobenzyl)-adenosine at A1 receptors: 3.2 factor
[2]; [11]
  Ki: 0.0638 ± 0.0151 µM
[3]
  factor less potent than N6-(3-iodobenzyl)-adenosine at A2a receptors: 6.7 factor
[3]; [12]
  Ki: 0.117 ± 0.015 µM

## CNC(=O)[C@H]1O[C@@H](n2cnc3c(NCc4cccc(I)c4)nc(NC)nc32)[C@H](O)[C@@H]1O [Example 45, N^6-(3-iodobenzyl)-2-methylamino-9-[5-(methylamido)-β-D-ribofuranosyl]-adenine]
[2]; [11]
  Ki: 4.89 ± 2.58 µM
[3]; [12]
  Ki: 4.12 ± 0.21 µM

## COc1nc2c(c(=O)n(C)c(=O)n2C)n1[C@@H]1O[C@H](CO)[C@@H](O)[C@H]1O [Example 59, 8-methoxytheophylline-7-β-D-ribofuranoside]
[2]; Table 4, at 10^-4 M, read-out: percent displacement of radioligand at A1
  inhibition at 100 µM: 21 ± 3%
[3]; Table 4, at 10^-4 M, read-out: percent displacement of radioligand at A2
  inhibition at 100 µM: 4%

## CN[C@H](CC(=O)O)C(=O)O [NMDA, N-methyl-D-aspartate, reference compound]
[9]; NMDA 60 mg/kg alone
  % Mortality at 24 h: 60%
  Ave. Latency to Seizures: 244 + 90 sec
[9]; NMDA 60 mg/kg alone (control), within 15 min
  % Convulsing: 80%
[9]; NMDA 60 mg/kg alone, 1 no change ... 6 clonic/tonic complexes
  Impairment (neurological impairment scale 1-6): 3.5 ± 0.5

## C1CCc2nnnn2CC1 [PMT, pentamethylenetetrazole, reference compound]
[10]
  Mortality 0.4-5 h: 0%
  Mortality <15 min: 100%
  Mortality >5 h: 0%
  Mortality Overall: 100%
  Onset of convulsive behavior: 74 s

## CN1CCC(=C2c3ccccc3C=Cc3ccccc32)CC1 [cyproheptadine, reference compound]
[1]; 1 mg/kg
  effect on 3-IB-MECA-induced scratching (in words): only partial
[1]; 10 mg/kg i.p.
  effect on 3-IB-MECA-induced scratching (in words): eliminated this behavior
